Test results published in publication PMC12189828, “Substitution of Proline Residues by 4-Fluoro-L-Proline Affects the Mechanism of the Proline-Rich Antimicrobial Peptide Api137” (Antibiotics, 2025).
Where “and” joins values, the source holds several entries; their conditions need not be identical. Identical values can stand only once. Where a SMILES comes first, the peptide text is derived from it. The star is where a group is joined. Orn(α-tetramethylguanidino) = CN(C)C(=N[C@@H](CCCN)C(=O)*)N(C)C

Tests used:
E. coli RN31 = test: Growth inhibition of E. coli RN31 during 90 min exponential growth phase; type: cell-based, Escherichia coli; settings: E. coli RN31, 33% TSB, peptide 8 µg/mL, 90 min, OD600; two biological replicates (n = 2)
Method: The following steps were performed on ice. Cells were harvested by centrifugation (4000× g, 4 °C, 25 min), washed with TICO buffer (20 mmol/L Hepes-KOH, pH 7.6, 6 mmol/L MgAc2, 30 mmol/L KAc), centrifuged (4000× g, 25 min, 4 °C), and stored at −80 °C. The cell pellet was suspended in TICO buffer (500 µL) and mixed with silica beads (zirconium glass pellets, 100 µm diameter; Carl Roth; Karlsruhe, Germany) to lyse the cells on a FastPrep-24^TM 5G (MP Biomedicals, Solon, OH, USA) using three disruption cycles (30 s, 6.0 m/s) interrupted by 1 min of incubation on ice after each cycle. Cell debris was removed by centrifugation (5000× g, 4 °C, 5 min), the supernatant was transferred to a new reaction tube, centrifuged (20,000× g, 4 °C, 20 min), the absorbance was recorded at 260 nm on a NanoPhotometer® NP80, and the sample was stored at −80 °C. […]

[1] = test system: in vitro expression of sfGFP in the presence of RF1; test: In vitro transcription-translation (iTT) assay of sfGFP in the presence of RF1; type: biochemical; settings: peptide 5 µmol/L, RF1, 37 °C, 2 h, fluorescence; normalized to absence of PrAMPs; n = 3
Procedure, shortened: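 Cell-free PURExpress ΔRF123 system was supplemented with 50-fold-diluted RF1 and a sfGFP template ending in a UAG stop codon (35 ng, 0.1325 pmol). PrAMP was added from a 50 or 0 µmol/L aqueous solution. Reactions ran at 37 °C for 2 h, with fluorescence (ex 485/em 535 nm) read every 10 min.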

[2] = test system: 50S subunit assembly / 70S ribosome in E. coli RN31; test: Ribosome profile analysis (RPA), sucrose gradient of E. coli RN31 lysate; type: cell-based, Escherichia coli; settings: 90 min
eukaryotic cell lines = settings: cited from earlier work

In the case of `CC[C@H](C)[C@H](NC(=O)[C@H](Cc1ccc(O)cc1)NC(=O)[C@@H](NC(=O)[C@@H]1CCCN1C(=O)[C@H](CCCNC(=N)N)NC(=O)[C@H](CC(N)=O)NC(=O)[C@H](CC(N)=O)NC(=O)[C@H](CCCN)N=C(N(C)C)N(C)C)C(C)C)C(=O)N1CCC[C@H]1C(=O)N[C@@H](CCCNC(=N)N)C(=O)N1CCC[C@H]1C(=O)N[C@@H](CCCNC(=N)N)C(=O)N1CCC[C@H]1C(=O)N1CCC[C@H]1C(=O)N[C@@H](Cc1c[nH]cn1)C(=O)N1CCC[C@H]1C(=O)N[C@@H](CCCNC(=N)N)C(=O)N[C@@H](CC(C)C)C(=O)O` [Api137] ({Orn(α-tetramethylguanidino)}-NNRPVYIPRPRPPHPRL-OH; N-terminus and C-terminus assumed), the “reduction of bacterial growth vs untreated control” value (E. coli RN31) is reported as 70%, the “Residual iTT (sfGFP expression relative to no PrAMP)” value [1] is reported as 22% and 22 ± 6.2% and the “RPA [pre-50S formation]” value ([2]; E. coli RN31, 33% TSB, peptide 8 µg/mL, 5–25% sucrose gradient, n = 2 (Api137 n = 7)) is reported as “yes”. For the same compound, the “70S peak (area) relative to untreated control” value ([2]; E. coli RN31, peptide 8 µg/mL, sucrose gradient profile) was ~ 50% and the “cytotoxicity to eukaryotic cell lines” value (eukaryotic cell lines) was “virtually non-toxic”.
